Reference: patent publication US20110039721A1, “METHOD FOR PREDICTION ABOUT CARCINOGENICITY OF SUBSTANCE IN RODENT” (Chemicals Evaluation and Research Institute, priority 2007, published 2011)

What was measured:
[1] = test system: mRNA expressed from the genes (A) to (D) in rat liver; test: Behavior of genes (mRNA expression level, oligo-DNA microarray) in rat liver after 28-day oral administration; type: in vivo; conditions: for Behavior of gene caused by administration of chemical substance, Gene No. 4846 / Behavior of gene caused by administration of chemical substance, Gene No. 2026 / Behavior of gene caused by administration of chemical substance, Gene No. 4218 / Behavior of gene caused by administration of chemical substance, Gene No. 6182 / Behavior of gene caused by administration of chemical substance, Gene No. 5600: gene group (A); for Behavior of gene caused by administration of chemical substance, Gene No. 4846: Unigene No. Rn.144554; for Behavior of gene caused by administration of chemical substance, Gene No. 2026 / Behavior of gene caused by administration of chemical substance, Gene No. 4218: Unigene No. Rn.167075; for Behavior of gene caused by administration of chemical substance, Gene No. 6182: Unigene No. Rn.5834; for Behavior of gene caused by administration of chemical substance, Gene No. 5600: Unigene No. Rn.9836; for Behavior of gene caused by administration of chemical substance, Gene No. 1494 / Behavior of gene caused by administration of chemical substance, Gene No. 2045 / Behavior of gene caused by administration of chemical substance, Gene No. 2203: gene group (B); for Behavior of gene caused by administration of chemical substance, Gene No. 1494: Unigene No. Rn.1430; for Behavior of gene caused by administration of chemical substance, Gene No. 2045: Unigene No. Rn.19329; for Behavior of gene caused by administration of chemical substance, Gene No. 2203: Unigene No. Rn.21240; for Behavior of gene caused by administration of chemical substance, Gene No. 533 / Behavior of gene caused by administration of chemical substance, Gene No. 725 / Behavior of gene caused by administration of chemical substance, Gene No. 1163 / Behavior of gene caused by administration of chemical substance, Gene No. 4973 / Behavior of gene caused by administration of chemical substance, Gene No. 4095 / Behavior of gene caused by administration of chemical substance, Gene No. 1334 / Behavior of gene caused by administration of chemical substance, Gene No. 6620 / Behavior of gene caused by administration of chemical substance, Gene No. 6303 / Behavior of gene caused by administration of chemical substance, Gene No. 5878 / Behavior of gene caused by administration of chemical substance, Gene No. 1131 / Behavior of gene caused by administration of chemical substance, Gene No. 1562 / Behavior of gene caused by administration of chemical substance, Gene No. 1741 / Behavior of gene caused by administration of chemical substance, Gene No. 893 / Behavior of gene caused by administration of chemical substance, Gene No. 6026 / Behavior of gene caused by administration of chemical substance, Gene No. 154 / Behavior of gene caused by administration of chemical substance, Gene No. 1993 / Behavior of gene caused by administration of chemical substance, Gene No. 813 / Behavior of gene caused by administration of chemical substance, Gene No. 2494 / Behavior of gene caused by administration of chemical substance, Gene No. 2546 / Behavior of gene caused by administration of chemical substance, Gene No. 3776 / Behavior of gene caused by administration of chemical substance, Gene No. 3929 / Behavior of gene caused by administration of chemical substance, Gene No. 1119 / Behavior of gene caused by administration of chemical substance, Gene No. 6742 / Behavior of gene caused by administration of chemical substance, Gene No. 5634: gene group (C); for Behavior of gene caused by administration of chemical substance, Gene No. 533: Unigene No. Rn.106184; for Behavior of gene caused by administration of chemical substance, Gene No. 725: Unigene No. Rn.108075; for Behavior of gene caused by administration of chemical substance, Gene No. 1163: Unigene No. Rn.11766; for Behavior of gene caused by administration of chemical substance, Gene No. 4973: Unigene No. Rn.118529; for Behavior of gene caused by administration of chemical substance, Gene No. 4095: Unigene No. Rn.119024; for Behavior of gene caused by administration of chemical substance, Gene No. 1334 / Behavior of gene caused by administration of chemical substance, Gene No. 6620: Unigene No. Rn.120914; for Behavior of gene caused by administration of chemical substance, Gene No. 6303: Unigene No. Rn.123063; for Behavior of gene caused by administration of chemical substance, Gene No. 5878: Unigene No. Rn.143213; for Behavior of gene caused by administration of chemical substance, Gene No. 1131: Unigene No. Rn.144946; for Behavior of gene caused by administration of chemical substance, Gene No. 1562: Unigene No. Rn.14744; for Behavior of gene caused by administration of chemical substance, Gene No. 1741: Unigene No. Rn.1647; for Behavior of gene caused by administration of chemical substance, Gene No. 893: Unigene No. Rn.164817; for Behavior of gene caused by administration of chemical substance, Gene No. 6026: Unigene No. Rn.167685; for Behavior of gene caused by administration of chemical substance, Gene No. 154: Unigene No. Rn.185941; for Behavior of gene caused by administration of chemical substance, Gene No. 1993: Unigene No. Rn.18728; for Behavior of gene caused by administration of chemical substance, Gene No. 813: Unigene No. Rn.201760; for Behavior of gene caused by administration of chemical substance, Gene No. 2494: Unigene No. Rn.23969; for Behavior of gene caused by administration of chemical substance, Gene No. 2546: Unigene No. Rn.24561; for Behavior of gene caused by administration of chemical substance, Gene No. 3776: Unigene No. Rn.43232; for Behavior of gene caused by administration of chemical substance, Gene No. 3929: Unigene No. Rn.4620; for Behavior of gene caused by administration of chemical substance, Gene No. 1119: Unigene No. Rn.9757; for Behavior of gene caused by administration of chemical substance, Gene No. 6742: Unigene No. Rn.9779; for Behavior of gene caused by administration of chemical substance, Gene No. 5634: Unigene No. Rn.9862; for Behavior of gene caused by administration of chemical substance, Gene No. 5726: gene group (D), Unigene No. Rn.9939
Outline: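 Liver mRNA measured by oligo-DNA microarray after 28 days of once-daily oral gavage in 5-week-old male F344 rats (n=4 per group), with vehicle controls given equal solvent volume. Significance threshold: 1.5-fold up or down versus control, with changes opposite in direction to other carcinogens counted as not significant.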

liver = conditions: classification of the substance (Cr+/Cr−); cited from earlier work
rodent = conditions: classification of the substance (C+/C−); cited from earlier work
[2] = classification of the substance (M+/M−); cited from earlier work

SMILES: Clc1ccc(Cl)cc1 [TS026, 1,4-Dichlorobenzene]
- Behavior of gene caused by administration of chemical substance, Gene No. 4846 ([1]; mRNA vs vehicle control group): −
- Behavior of gene caused by administration of chemical substance, Gene No. 2026 ([1]; mRNA vs vehicle control group): −
- Behavior of gene caused by administration of chemical substance, Gene No. 4218 ([1]; mRNA vs vehicle control group): −
- Behavior of gene caused by administration of chemical substance, Gene No. 6182 ([1]; mRNA vs vehicle control group): −
- Behavior of gene caused by administration of chemical substance, Gene No. 5600 ([1]; mRNA vs vehicle control group): −
- Behavior of gene caused by administration of chemical substance, Gene No. 1494 ([1]; mRNA vs vehicle control group): +
- Behavior of gene caused by administration of chemical substance, Gene No. 2045 ([1]; mRNA vs vehicle control group): −
- Behavior of gene caused by administration of chemical substance, Gene No. 2203 ([1]; mRNA vs vehicle control group): −
- Behavior of gene caused by administration of chemical substance, Gene No. 533 ([1]; mRNA vs vehicle control group): +
- Behavior of gene caused by administration of chemical substance, Gene No. 725 ([1]; mRNA vs vehicle control group): −
- Behavior of gene caused by administration of chemical substance, Gene No. 1163 ([1]; mRNA vs vehicle control group): −
- Behavior of gene caused by administration of chemical substance, Gene No. 4973 ([1]; mRNA vs vehicle control group): −
- Behavior of gene caused by administration of chemical substance, Gene No. 4095 ([1]; mRNA vs vehicle control group): +
- Behavior of gene caused by administration of chemical substance, Gene No. 1334 ([1]; mRNA vs vehicle control group): −
- Behavior of gene caused by administration of chemical substance, Gene No. 6620 ([1]; mRNA vs vehicle control group): −
- Behavior of gene caused by administration of chemical substance, Gene No. 6303 ([1]; mRNA vs vehicle control group): +
- Behavior of gene caused by administration of chemical substance, Gene No. 5878 ([1]; mRNA vs vehicle control group): −
- Behavior of gene caused by administration of chemical substance, Gene No. 1131 ([1]; mRNA vs vehicle control group): −
- Behavior of gene caused by administration of chemical substance, Gene No. 1562 ([1]; mRNA vs vehicle control group): −
- Behavior of gene caused by administration of chemical substance, Gene No. 1741 ([1]; mRNA vs vehicle control group): −
- Behavior of gene caused by administration of chemical substance, Gene No. 893 ([1]; mRNA vs vehicle control group): −
- Behavior of gene caused by administration of chemical substance, Gene No. 6026 ([1]; mRNA vs vehicle control group): +
- Behavior of gene caused by administration of chemical substance, Gene No. 154 ([1]; mRNA vs vehicle control group): −
- Behavior of gene caused by administration of chemical substance, Gene No. 1993 ([1]; mRNA vs vehicle control group): −
- Behavior of gene caused by administration of chemical substance, Gene No. 813 ([1]; mRNA vs vehicle control group): −
- Behavior of gene caused by administration of chemical substance, Gene No. 2494 ([1]; mRNA vs vehicle control group): −
- Behavior of gene caused by administration of chemical substance, Gene No. 2546 ([1]; mRNA vs vehicle control group): −
- Behavior of gene caused by administration of chemical substance, Gene No. 3776 ([1]; mRNA vs vehicle control group): −
- Behavior of gene caused by administration of chemical substance, Gene No. 3929 ([1]; mRNA vs vehicle control group): −
- Behavior of gene caused by administration of chemical substance, Gene No. 1119 ([1]; mRNA vs vehicle control group): −
- Behavior of gene caused by administration of chemical substance, Gene No. 6742 ([1]; mRNA vs vehicle control group): −
- Behavior of gene caused by administration of chemical substance, Gene No. 5634 ([1]; mRNA vs vehicle control group): −
- Behavior of gene caused by administration of chemical substance, Gene No. 5726 ([1]; mRNA vs vehicle control group): +
- Liver carcinogenicity (liver): Cr−
- Carcinogenicity (rodent): C+
- Mutagenicity by Ames test [2]: M−

SMILES: Cl.ClCc1ccccn1 [TS033, 2-Chloromethylpyridine HCl]
- Behavior of gene caused by administration of chemical substance, Gene No. 4846 [1]: −
- Behavior of gene caused by administration of chemical substance, Gene No. 2026 [1]: −
- Behavior of gene caused by administration of chemical substance, Gene No. 4218 [1]: −
- Behavior of gene caused by administration of chemical substance, Gene No. 6182 [1]: −
- Behavior of gene caused by administration of chemical substance, Gene No. 5600 [1]: −
- Behavior of gene caused by administration of chemical substance, Gene No. 1494 [1]: −
- Behavior of gene caused by administration of chemical substance, Gene No. 2045 [1]: −
- Behavior of gene caused by administration of chemical substance, Gene No. 2203 [1]: −
- Behavior of gene caused by administration of chemical substance, Gene No. 533 [1]: −
- Behavior of gene caused by administration of chemical substance, Gene No. 725 [1]: −
- Behavior of gene caused by administration of chemical substance, Gene No. 1163 [1]: −
- Behavior of gene caused by administration of chemical substance, Gene No. 4973 [1]: −
- Behavior of gene caused by administration of chemical substance, Gene No. 4095 [1]: −
- Behavior of gene caused by administration of chemical substance, Gene No. 1334 [1]: −
- Behavior of gene caused by administration of chemical substance, Gene No. 6620 [1]: −
- Behavior of gene caused by administration of chemical substance, Gene No. 6303 [1]: −
- Behavior of gene caused by administration of chemical substance, Gene No. 5878 [1]: −
- Behavior of gene caused by administration of chemical substance, Gene No. 1131 [1]: −
- Behavior of gene caused by administration of chemical substance, Gene No. 1562 [1]: −
- Behavior of gene caused by administration of chemical substance, Gene No. 1741 [1]: −
- Behavior of gene caused by administration of chemical substance, Gene No. 893 [1]: −
- Behavior of gene caused by administration of chemical substance, Gene No. 6026 [1]: −
- Behavior of gene caused by administration of chemical substance, Gene No. 154 [1]: −
- Behavior of gene caused by administration of chemical substance, Gene No. 1993 [1]: −
- Behavior of gene caused by administration of chemical substance, Gene No. 813 [1]: −
- Behavior of gene caused by administration of chemical substance, Gene No. 2494 [1]: −
- Behavior of gene caused by administration of chemical substance, Gene No. 2546 [1]: −
- Behavior of gene caused by administration of chemical substance, Gene No. 3776 [1]: −
- Behavior of gene caused by administration of chemical substance, Gene No. 3929 [1]: −
- Behavior of gene caused by administration of chemical substance, Gene No. 1119 [1]: −
- Behavior of gene caused by administration of chemical substance, Gene No. 6742 [1]: −
- Behavior of gene caused by administration of chemical substance, Gene No. 5634 [1]: −
- Behavior of gene caused by administration of chemical substance, Gene No. 5726 [1]: −
- Liver carcinogenicity (liver): Cr−
- Carcinogenicity (rodent): C−
- Mutagenicity by Ames test [2]: M+
